The test concerns the target T1, soluble guanylate cyclase (sGC) expressed by CHO-K1-Rat sGC monoclonal cell line (Rattus norvegicus, UniProt P19686+P20595).
T1 construct: expressed in transfected cells; host or cells: CHO-K1
T1 sequence (P19686 1-690): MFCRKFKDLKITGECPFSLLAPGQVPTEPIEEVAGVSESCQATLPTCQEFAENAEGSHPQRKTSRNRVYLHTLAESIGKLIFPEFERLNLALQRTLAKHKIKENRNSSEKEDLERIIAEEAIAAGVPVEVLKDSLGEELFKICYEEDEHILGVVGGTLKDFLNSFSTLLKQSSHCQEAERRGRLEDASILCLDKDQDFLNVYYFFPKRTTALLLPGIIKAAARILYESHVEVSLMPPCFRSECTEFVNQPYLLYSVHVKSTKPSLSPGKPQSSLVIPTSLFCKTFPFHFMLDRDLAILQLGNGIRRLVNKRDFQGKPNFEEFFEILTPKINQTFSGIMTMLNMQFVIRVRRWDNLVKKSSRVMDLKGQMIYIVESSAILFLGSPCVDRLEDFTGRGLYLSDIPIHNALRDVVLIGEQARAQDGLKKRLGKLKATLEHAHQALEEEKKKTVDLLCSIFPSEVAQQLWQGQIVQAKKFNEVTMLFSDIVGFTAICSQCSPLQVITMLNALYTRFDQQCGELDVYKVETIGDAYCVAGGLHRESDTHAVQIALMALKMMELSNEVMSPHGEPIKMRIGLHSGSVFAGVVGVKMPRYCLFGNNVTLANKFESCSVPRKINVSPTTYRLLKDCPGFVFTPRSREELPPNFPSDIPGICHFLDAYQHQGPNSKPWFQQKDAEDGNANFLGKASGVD
T1 sequence (P20595 1-619): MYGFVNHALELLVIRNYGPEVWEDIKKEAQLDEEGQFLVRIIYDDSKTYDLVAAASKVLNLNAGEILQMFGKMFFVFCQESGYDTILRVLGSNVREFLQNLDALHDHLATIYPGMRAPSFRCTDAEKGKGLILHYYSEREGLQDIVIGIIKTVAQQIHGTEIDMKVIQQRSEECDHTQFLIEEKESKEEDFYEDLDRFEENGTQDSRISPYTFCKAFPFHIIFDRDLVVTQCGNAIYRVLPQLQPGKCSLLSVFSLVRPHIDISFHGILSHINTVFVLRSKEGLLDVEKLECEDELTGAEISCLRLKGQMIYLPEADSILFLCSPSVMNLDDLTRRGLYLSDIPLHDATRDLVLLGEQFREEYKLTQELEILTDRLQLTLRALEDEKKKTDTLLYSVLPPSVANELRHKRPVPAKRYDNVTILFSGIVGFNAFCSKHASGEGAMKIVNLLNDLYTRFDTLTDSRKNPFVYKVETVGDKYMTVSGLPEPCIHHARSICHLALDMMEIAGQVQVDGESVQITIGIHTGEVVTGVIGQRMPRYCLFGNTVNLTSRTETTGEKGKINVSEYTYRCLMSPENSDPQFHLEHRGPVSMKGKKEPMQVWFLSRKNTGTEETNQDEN
Nature of the test: Effect on recombinant guanylate cyclase reporter cell line (CHO-K1-Rat sGC, Cisbio cGMP HTRF). The test is classed as cell-based. The following applies: activating soluble guanylate cyclase. An excerpt: Transfection of Soluble Guanylate Cyclase (sGC) gene into CHO-K1 cells and selection of cells with stably and highly expressed sGC: Rat sGCα1 and Rat sGCβ1 Genes were synthesized, and then pcDNA3.1(+)-rat sGCα1 and pcDNA3.1/Hygro (+)-rat sGCβ1 plasmid were constructed; the plasmid was co-transfected into CHO-K1 cells, and a positive clone cell line stably expressing CHO-K1-Rat sGC was selected using the Cisbio cGMP HTRF assay kit.
The activity of the compound on the CHO-K1-Rat sGC monoclonal cell line was determined: The CHO-K1-Rat sGC monoclonal cell line was cultured, and used for test operation at degree of fusion of about 70% to 90%. The cells were resuspended in complete medium after TrypLE digestion; the cells were inoculated in a 384-well (low volume tissues culture treated) cell culture plate at a seeding density of 7500/well in 25 μL of complete medium and incubated at 37° C. in 5% CO2 atmosphere for 20 hours; the test compounds were dissolved and dilute with DMSO to give 10 concentration gradients (2× working concentration); 384-well cell culture plates were centrifugated (200 g) for 3 seconds by inversion at RT, medium was removed; The test compounds in each different concentration gradient and corresponding reagent were added into each cell well according to the detection process of Cisbio cGMP HTRF assay kit. The data were collected with Envision HTRF detector and the EC50 value of each compound in activating soluble guanylate cyclase was calculated.
In general terms: In TR-FRET formats the signal depends on donor and acceptor labels being close together.

pEC50: −log10 of the molar value.

The pEC50 is −log10 of the EC50, conventionally taken in molar units. As to `COC(=O)Nc1c(N)nc(-c2nn(Cc3ccccc3F)c3c(F)cccc23)nc1N` [Example 10, methyl (4,6-diamino-2-(7-fluoro-1-(2-fluorobenzyl)-1H-indazol-3-yl)pyrimidin-5-yl)carbamate], the pEC50 is 6.43.

For the origin of these results see patent publication US11242335B2, “Fluorine-substituted indazole compounds and uses thereof” (SUNSHINE LAKE PHARMA CO., LTD., priority 2017, dated 2022).
